biological target: T1, S1P2 (Homo sapiens, UniProt O95136); test: GLISA RhoA activation - antagonist assay; type: cell-based; conditions: 1 μM compound, CHO-S1P2-FL cells
T1 construct: Flag; expressed in transfected cells; host or cells: Chinese hamster ovary (CHO) cells, doxycycline-inducible (CHO-S1P2-FL / CHO-S1PR2 FL)
Method: GLISA RhoA Activation—Antagonist Assay
GLISA assays were performed using RhoA (BK124) activation kit purchased from Cytoskeleton Inc., Denver, CO Doxycycline-inducible Flag-tag S1P2 expressing Chinese hamster ovary (CHO) cells (CHO-S1P2-FL) were seeded in a 6-well plate, 1.5×10^5 cells per well. Cells were stimulated with […] of Doxycycline to induce S1P2 expression in serum free IMDM media with 0.1% BSA/PBS. Following day, cells were stimulated with the compounds described herein (1 nM-10 μM) or 1 μM JTE-013 for 1 hour at 37° C. Following compound incubation, cells were washed with PBS×3 and induced with 100 nM […] for 5 min. […] Protein concentration was examined using GLISA—Precision Red Advanced Protein assay reagent as described in assay manual. Lysates were immobilized on GTP-bound capture plate and GLISA assay was performed based on manufacture recommendations as reported previously.

T1 sequence (O95136 whole entry, species assumed): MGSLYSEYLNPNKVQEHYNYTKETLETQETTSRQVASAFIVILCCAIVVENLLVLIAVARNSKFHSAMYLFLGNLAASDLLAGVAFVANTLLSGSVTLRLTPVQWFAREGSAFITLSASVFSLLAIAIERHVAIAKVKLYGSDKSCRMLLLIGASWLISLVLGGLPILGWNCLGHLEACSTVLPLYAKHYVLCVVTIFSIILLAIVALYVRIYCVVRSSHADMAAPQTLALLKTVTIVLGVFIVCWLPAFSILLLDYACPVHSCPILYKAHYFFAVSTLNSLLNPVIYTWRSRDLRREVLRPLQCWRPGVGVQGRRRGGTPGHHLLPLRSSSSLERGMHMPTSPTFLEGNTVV

inhibition at 1 µM [%]	SMILES
35	Cc1cc(C(=O)C(C)n2cc(Br)ccc2=O)c(C)n1Cc1cccc(S(C)(=O)=O)c1 (stereo not drawn) [Compound 14, 5-bromo-1-(1-(2,5-dimethyl-1-(3-(methylsulfonyl)benzyl)-1H-1-pyrrol-3-yl)-1-oxopropan-2-yl)pyridin-2(1H)-one]
42	O=C(Cn1cc(Br)ccc1=O)N1CCC(c2ccc(F)cc2)C1 (stereo not drawn) [Example 67, 5-Bromo-1-(2-(3-(4-fluorophenyl)pyrrolidin-1-yl)-2-oxoethyl)pyridin-2(1H)-one]
< 10	O=C(Cn1cc(Br)ccc1=O)N1CCC(Cc2ccc(F)cc2)C1 (stereo not drawn) [Example 66, 5-Bromo-1-(2-(3-(4-fluorobenzyl)pyrrolidin-1-yl)-2-oxoethyl)pyridin-2(1H)-one]
64	Cc1nc(C(=O)Cn2cc(Br)ccc2=O)c(C)n1Cc1ccc(F)cc1 [Compound 30, 5-bromo-1-(2-(1-(4-fluorobenzyl)-2,5-dimethyl-1H-imidazol-4-yl)-2-oxoethyl)pyridin-2(1H)-one]
70	Cc1cc(C(=O)C(C)n2cc(Br)ccc2=O)c(C)n1Cc1cccc(C#N)c1 (stereo not drawn) [Compound 15, 3-((3-(2-(5-bromo-2-oxopyridin-1(2H)-yl)propanoyl)-2,5-dimethyl-1H-pyrrol-1-yl)methyl)benzonitrile]
< 10	Cc1cc(C(=O)C(C)n2cc(Br)ccc2=O)c(C)n1CC1CCC1 (stereo not drawn) [Example 59, 5-Bromo-1-(1-(1-(cyclobutylmethyl)-2,5-dimethyl-1H-pyrrol-3-yl)-1-oxopropan-2-yl)pyridin-2(1H)-one]
< 10	Cc1ccccc1Cn1c(C)cc(C(=O)C(C)n2cc(Br)ccc2=O)c1C (stereo not drawn) [Example 64, 5-Bromo-1-(1-(2,5-dimethyl-1-(2-methylbenzyl)-1H-pyrrol-3-yl)-1-oxopropan-2-yl)pyridin-2(1H)-one]
86	Cc1cc(C(=O)C(C)n2cc(Br)ccc2=O)c(C)n1Cc1ccccc1 (stereo not drawn) [Compound 4, 1-(1-(1-benzyl-2,5-dimethyl-1H-pyrrol-3-yl)-1-oxopropan-2-yl)-5-bromopyridin-2(1H)-one]
39	Cc1cc(C(=O)C(C)n2cc(Br)ccc2=O)c(C)n1Cc1ccncc1 (stereo not drawn) [Compound 25, 5-bromo-1-(1-(2,5-dimethyl-1-(pyridin-4-ylmethyl)-1H-pyrrol-3-yl)-1-oxopropan-2-yl)pyridin-2(1H)-one]
32	Cc1cc(Cn2c(C)cc(C(=O)C(C)n3cc(Br)ccc3=O)c2C)no1 (stereo not drawn) [Compound 9, 5-bromo-1-(1-(2,5-dimethyl-1-((5-methylisoxazol-3-yl)methyl)-1H-pyrrol-3-yl)-1-oxopropan-2-yl)pyridin-2(1H)-one]
< 10	Cc1cc(C(=O)C(C)n2cc(Br)ccc2=O)c(C)n1CC1CC1 (stereo not drawn) [Example 58, 5-Bromo-1-(1-(1-(cyclopropylmethyl)-2,5-dimethyl-1H-pyrrol-3-yl)-1-oxopropan-2-yl)pyridin-2(1H)-one]
39	Cc1cc(C(=O)C(C)n2cc(Br)ccc2=O)c(C)n1Cc1ccc(C#N)cc1 (stereo not drawn) [Compound 16, 4-((3-(2-(5-bromo-2-oxopyridin-1(2H)-yl)propanoyl)-2,5-dimethyl-1H-pyrrol-1-yl)methyl)benzonitrile]

same assay, conditions: CHO-S1P2-FL cells, 1 hour compound incubation, then for 5 min

SMILES	IC50 [nM]
COc1ccc(=O)n(CC(=O)c2cc(C)n(Cc3ccccc3)c2C)c1 [Example 50, 1-(2-(1-Benzyl-2,5-dimethyl-1H-pyrrol-3-yl)-2-oxoethyl)-5-methoxypyridin-2(1H)-one]	> 10000
CC(=O)Nc1ccc(=O)n(CC(=O)c2cc(C)n(Cc3ccccc3)c2C)c1 [Example 54, N-(1-(2-(1-Benzyl-2,5-dimethyl-1H-pyrrol-3-0)-2-oxoethyl)-6-oxo-1,6-dihydropyridin-3-yl)acetamide]	> 10000
Cc1cc(C(=O)Cn2cc(C(C)(C)C)ccc2=O)c(C)n1Cc1ccccc1 [Example 53, 1-(2-(1-Benzyl-2,5-dimethyl-1H-pyrrol-3-yl)-2-oxoethyl)-5-(tert-butyl)pyridin-2(1H)-one]	> 10000
Cc1cc(C(=O)C(C)n2cc(C#N)ccc2=O)c(C)n1Cc1ccccc1 (stereo not drawn) [Example 52, 1-(1-(1-Benzyl-2,5-dimethyl-1H-pyrrol-3-yl)-1-oxopropan-2-yl)-6-oxo-1,6-dihydropyridine-3-carbonitrile]	> 10000
Cc1nc(C(=O)Cn2cc(Br)ccc2=O)c(C)n1Cc1ccc(F)cc1 [Compound 30, 5-bromo-1-(2-(1-(4-fluorobenzyl)-2,5-dimethyl-1H-imidazol-4-yl)-2-oxoethyl)pyridin-2(1H)-one]	595
Cc1cc(C(=O)Cn2cc(C#N)ccc2=O)c(C)[nH]1 [Example 47, 1-(2-(2,5-Dimethyl-1H-pyrrol-3-yl)-2-oxoethyl)-6-oxo-1,6-dihydropyridine-3-carbonitrile]	> 10000
Cc1cc(C(=O)C(Cc2ccc(-c3ccccc3)cc2)n2cc(C#N)ccc2=O)c(C)[nH]1 (stereo not drawn) [Example 48, 1-(3-((1,1′-Biphenyl)-4-yl)-1-(2,5-dimethyl-1H-pyrrol-3-yl)-1-oxopropan-2-yl)-6-oxo-1,6-dihydropyridine-3-carbonitrile]	> 10000
Cc1cc(C(=O)Cn2cc(C(=O)O)ccc2=O)c(C)n1Cc1ccccc1 [Example 46, 1-(2-(1-Benzyl-2,5-dimethyl-1H-pyrrol-3-yl)-2-oxoethyl)-6-oxo-1,6-dihydropyridine-3-carboxylic Acid]	> 10000
Cc1cc(C(=O)C(C)n2cc(Br)ccc2=O)c(C)n1Cc1ccccc1 (stereo not drawn) [Compound 4, 1-(1-(1-benzyl-2,5-dimethyl-1H-pyrrol-3-yl)-1-oxopropan-2-yl)-5-bromopyridin-2(1H)-one]	26
Cc1cc(C(=O)Cn2cc(Cl)ccc2=O)c(C)n1Cc1ccccc1 [Example 45, 1-(2-(1-Benzyl-2,5-dimethyl-1H-pyrrol-3-yl)-2-oxoethyl)-5-chloropyridin-2(1H)-one]	> 10000

Next, values leading:

IC50 [nM]	SMILES
91	Cc1c(C(=O)Cn2cc(Br)c(F)cc2=O)cnn1Cc1ccccc1 [Example 72, 1-(2-(1-Benzyl-5-methyl-1H-pyrazol-4-yl)-2-oxoethyl)-5-bromo-4-fluoropyridin-2(1H)-one]
59	C#Cc1ccc(=O)n(C(C)C(=O)c2cnn(Cc3ccccc3)c2C)n1 (stereo not drawn) [Example 73, 2-(1-(1-Benzyl-5-methyl-1H-pyrazol-4-yl)-1-oxopropan-2-yl)-6-ethynylpyridazin-3(2H)-one]
65	C=Cc1ccc(=O)n(CC(=O)c2nnn(Cc3ccccc3)c2C)c1 [Example 89, 1-(2-(1-Benzyl-5-methyl-1H-1,2,3-triazol-4-yl)-2-oxoethyl)-5-vinylpyridin-2(1H)-one]
22	Cc1c(C(=O)Cn2c(F)c(Br)ccc2=O)cnn1Cc1ccccc1 [Example 71, 1-(2-(1-Benzyl-5-methyl-1H-pyrazol-4-yl)-2-oxoethyl)-5-bromo-6-fluoropyridin-2(1H)-one]
108	C=Cc1ccc(=O)n(CC(=O)c2cnn(Cc3ccccc3)c2CC)c1 [Example 85, 1-(2-(1-Benzyl-5-ethyl-1H-pyrazol-4-yl)-2-oxoethyl)-5-vinylpyridin-2(1H)-one]
50	Cc1c(C(=O)Cn2cc(C#N)cc(C#N)c2=O)cnn1Cc1ccccc1 [Example 69, 1-(2-(1-Benzyl-5-methyl-1H-pyrazol-4-yl)-2-oxoethyl)-2-oxo-1,2-dihydropyridine-3,5-dicarbonitrile]
74	C=Cc1ccc(=O)n(CC(=O)c2cnn(Cc3ccccc3)c2C(F)(F)F)c1 [Example 82, 1-(2-(1-Benzyl-5-(trifluoromethyl)-1H-pyrazol-4-yl)-2-oxoethyl)-5-vinylpyridin-2(1H)-one]
58	C#Cc1ccc(=O)n(C(C)C(=O)c2cnn(Cc3ccc(F)cc3F)c2C)n1 (stereo not drawn) [Example 75, 2-(1-(1-(2,4-Difluorobenzyl)-5-methyl-1H-pyrazol-4-yl)-1-oxopropan-2-yl)-6-ethynylpyridazin-3(2H)-one]
